{"source": "a melting point compilation (Tetko et al.; mined from patent text by program, amines drawn as free bases though some values may be those of a salt)", "data": [{"units": {"melting point": "°C"}, "values": [{"compound": "NC(=O)N1C(=O)C(C(=O)c2cccs2)c2ccncc21", "note": "(stereo not given)", "melting point": "213 to 215"}, {"compound": "CN1C(=O)CC[C@]2(C)c3ccc(-c4ccc(Cl)c(Cl)c4)cc3CC[C@@H]12", "melting point": "129 to 135"}, {"compound": "O=C1N(CC(O)CO)c2ccccc2C12COc1cc3c(cc12)OCCO3", "note": "(stereo not given)", "melting point": "179 to 181"}, {"compound": "CCn1c2ccc(C(=O)c3ccc(-n4c5ccccc5c5ccccc54)cc3)cc2c2cc(C(C)=NO)ccc21", "melting point": "151 to 154"}, {"compound": "CCCNC(=O)n1c(=O)cc2n1C(c1cccc([N+](=O)[O-])c1)C(C(=O)OC(C)C)=C(C)N2", "note": "(stereo not given)", "melting point": "160 to 163"}, {"compound": "COC(=O)[C@H]1Cc2c([nH]c3ccccc23)[C@@H](c2ccc3occc3c2)N1C(=O)[C@H](C)NC(=O)OCc1ccccc1", "melting point": "91 to 92"}, {"compound": "FC(F)c1cc(-c2ccc(C(F)(F)F)cc2)nc2c(-c3ccncc3)cnn12", "melting point": 222}, {"compound": "CN(C)C1(c2ccccc2)CC=C(c2c[nH]c3ccccc23)CC1", "note": "(stereo not given)", "melting point": "164 to 172"}, {"compound": "CS(=O)(=O)Nc1ccc([N+](=O)[O-])cc1C(=O)C1CCCCC1", "melting point": "178 to 179"}, {"compound": "CC(=O)Nc1ccc(N2N=C(C)CC2=O)cc1", "melting point": 230}, {"compound": "Cc1nc(OC(C)C)c([N+](=O)[O-])c(N2CCN(c3ccc(F)cc3)CC2)n1", "melting point": "98 to 100"}, {"compound": "N#Cc1ccc2c(c1)[nH]c(=S)n2NC(=O)c1ccc(Cl)c(S(N)(=O)=O)c1", "melting point": 315}, {"compound": "Nc1ccc(-c2nc3ccccc3o2)cc1I", "melting point": "188 to 191"}, {"compound": "N=C(NCc1cccnc1)NN=Cc1c(Cl)cccc1Cl", "melting point": "148 to 151"}, {"compound": "Cc1cc(O)cc(Cl)c1Cl", "melting point": "98 to 100"}, {"compound": "Cc1nc(-c2cccc(-c3nc4sccn4c3-c3ccnc(N[C@@H]4CCCNC4)n3)c2)no1", "melting point": "203 to 207"}, {"compound": "CCONC(O)(CC)C1C(=O)C=C(CC)OC1=O", "note": "(stereo not given)", "melting point": "63 to 64"}, {"compound": "O=C(O)c1cn(C2CC2)c2c(F)c(N3CCN(O)CC3)c(F)cc2c1=O", "melting point": "223 to 227"}, {"compound": "OC(CC1CCNCC1)(c1ccc(F)cc1)c1ccc(F)cc1", "melting point": "169 to 171"}, {"compound": "CC(=O)Nc1c(C(=O)c2ccc(Cl)c(Cl)c2)[nH]c2cc(Cl)ccc12", "melting point": "169 to 171"}, {"compound": "CCN(CC)c1ccc2c(c1)Oc1cc(OC)c(N(c3ccccc3)c3ccccc3)cc1C2c1ccccc1C(=O)OC", "note": "(stereo not given)", "melting point": "117 to 119"}, {"compound": "CCOC(=O)c1cc2ccccc2n(-c2c(Cl)cccc2Cl)c1=N", "melting point": "169 to 170"}, {"compound": "CCc1cc(C(=O)O)c(Nc2ccccc2[N+](=O)[O-])s1", "melting point": "189 to 191"}, {"compound": "C=CCCc1ccc(C=NN=Cc2ccc(C)cc2)cc1", "melting point": 82}, {"compound": "CC(C)(C)C(=O)N(NC(=O)c1ccccc1)C(C)(C)C", "melting point": "217 to 220"}, {"compound": "CCOC(=O)c1ccc2c(c1)c(C#Cc1ccccc1)nn2CCC#N", "melting point": "90 to 94"}, {"compound": "Cc1[nH]c(=O)c(-c2csc(-c3ccnc(NCC4CC4)c3)n2)cc1C(=O)NCC1CC1", "melting point": "> 260"}, {"compound": "O=C(O)CCCCCCCCCCc1ccc(F)cc1F", "melting point": 56}, {"compound": "Nc1c2c(nc3cc(C(F)(F)F)ccc13)CCSC2", "melting point": "253 to 259"}, {"compound": "COC(=O)NN=Cc1nc(-c2cccc(C)c2)[nH]c1C", "melting point": "162 to 164"}, {"compound": "CC(C)(C)c1ccc(C[C@@H](NC(=O)c2ccc(F)c3ccccc23)[C@@H](O)c2ccc(F)cc2)cc1", "note": "(racemic)", "melting point": "149 to 150"}, {"compound": "CCCCCCCCN1C(=O)c2c(Br)sc(Br)c2C1=O", "melting point": 104}, {"compound": "Nc1ccc(F)c(-c2cncnc2)c1F", "melting point": "141 to 143"}, {"compound": "CS(=O)(=O)c1ccc(C2=C(c3ccccc3)C(=O)N(c3ccc(F)cc3)C2=O)c(F)c1", "melting point": "198 to 200"}, {"compound": "COn1cnc2c(N)nc3ccccc3c21", "melting point": "238 to 240"}, {"compound": "COc1ccc(-c2cccc(COCCc3cccc(NC(N)=O)c3)c2)cc1", "melting point": "87 to 89"}, {"compound": "CC(SCc1cc2cc(Cl)ccc2n1S(=O)(=O)c1ccccc1)C(=O)O", "note": "(stereo not given)", "melting point": 138}, {"compound": "CC1COC(c2cnc(C3=NC(C)(C(C)C)C(=O)N3)c(C(=O)O)c2)O1", "note": "(stereo not given)", "melting point": "50 to 62"}, {"compound": "CCOC(=O)c1cnc(=O)n2c1sc1cc(OC)ccc12", "melting point": "231 to 232"}, {"compound": "CC(=O)Nc1ccc(S(=O)(=O)CCCCNS(=O)(=O)c2ccc(C)cc2)cc1", "melting point": "93 to 95"}, {"compound": "O=C(O)CCCSC(=S)NCCCc1ccc(Cl)cc1", "melting point": "98 to 100"}, {"compound": "CCOC(=O)C(C(=O)CCCC(C)C)C1c2ccccc2C(=O)N1c1ccc2ccc(Cl)nc2n1", "note": "(stereo not given)", "melting point": 135}, {"compound": "O=C1c2cc(Cl)ccc2-c2ccccc2CN1CCBr", "melting point": "94 to 97"}, {"compound": "COc1ccc(O)c(CNc2ccccc2)c1", "melting point": "82 to 84"}, {"compound": "COc1cc(C)c2ccccc2n1", "melting point": "181 to 191"}, {"compound": "CC1C(=O)Nc2ccc(Cl)cc2N1C1CC1", "note": "(racemic)", "melting point": 167}, {"compound": "CCOC(=S)c1sc(Cl)nc1C(F)(F)F", "melting point": "28 to 32"}, {"compound": "CCCCc1cn(Cc2ccc(-c3ccccc3C(=O)O)cc2)c2ccccc2c1=O", "melting point": 214}, {"compound": "CSC(=CC(=O)C(F)(F)F)NCc1ccc(Cl)nc1", "melting point": 112}, {"compound": "CNC(=N)Nc1nnc(-c2ccccc2C(F)(F)F)s1", "melting point": "160 to 162"}, {"compound": "CCOC(=O)COc1cc(C(F)(F)F)c2c(=O)c(-c3ccccc3)coc2c1", "melting point": "139 to 140"}, {"compound": "C(#Cc1cc2ccccc2s1)c1ccc(-c2ccccc2)s1", "melting point": "185 to 186"}, {"compound": "CCOc1ccc(CCNC(=O)C(N)=O)cc1OCC", "melting point": "168 to 169"}, {"compound": "COc1cccc2c(-c3ccnc(N[C@H]4CC[C@H](O)CC4)n3)n[nH]c12", "melting point": "243 to 245"}, {"compound": "OCCCSCCSCCCO", "melting point": 52}, {"compound": "O=C(NCC1(c2ccccc2)CCCCC1)Nc1cccc(Cl)c1Cl", "melting point": "214 to 215"}, {"compound": "N#Cc1ccc(N2c3cc(Cl)ccc3C(=O)OC23CCNCC3)cc1", "melting point": "183 to 185"}, {"compound": "COc1ccccc1N1CCN(CC(O)COc2ccc(OCc3ccccc3)c3ccccc23)CC1", "note": "(stereo not given)", "melting point": "143 to 145"}, {"compound": "C=CCOc1ccc(C=CC(=O)N2CCN(c3nc(N)c4cc(OC)c(OC)cc4n3)CC2)cc1", "melting point": "218 to 220"}, {"compound": "CCC(C(=O)OC)c1cccc(C(=O)c2cc3cc(C(=O)OC)sc3s2)c1", "note": "(stereo not given)", "melting point": 143}, {"compound": "COc1cc([N+](=O)[O-])c2nccc(C)c2c1OC", "melting point": "123 to 125"}, {"compound": "CCOC(=O)c1cc2cccc(N(C)C(=O)c3cccs3)c2[nH]1", "melting point": 193}, {"compound": "Cc1cc2cc(Nc3ncnc4cc(-c5ccccc5)sc34)ccc2[nH]1", "melting point": "218 to 220"}, {"compound": "CCc1cc2c(C3=NNC(=O)CC3C)cc(Cl)cn2n1", "note": "(stereo not given)", "melting point": "172 to 174"}, {"compound": "CN(C)S(=O)(=O)CCc1ccc2[nH]cc(CC#N)c2c1", "melting point": "105 to 107"}, {"compound": "Nc1cc(C(=O)CCC(=O)O)ccc1Br", "melting point": "169 to 171"}, {"compound": "O=C(NCC1CCN(C(=O)OCc2ccccc2)CC1)c1ccc(O)cc1", "melting point": "122 to 123"}, {"compound": "O=C1c2ccccc2C(=O)N1CCCCCCc1cncnc1", "melting point": "124 to 126"}, {"compound": "COc1ccc(NC(C)=O)cc1F", "melting point": 120}, {"compound": "COc1ccc(Sc2ccncc2)c([N+](=O)[O-])c1", "melting point": "57 to 59"}, {"compound": "CCN1CCCC1=NC(=O)Nc1c(C)cccc1C", "melting point": "120 to 122"}, {"compound": "C=CCn1c2ccccc2c2ccccc21", "melting point": "52 to 54"}, {"compound": "O=C1NCC=NN1c1cc(Cl)c(Cc2ccc(Cl)cc2)c(Cl)c1", "melting point": "199 to 200"}, {"compound": "Cc1nc(N)c2nc(CO)n(CC(C)C)c2c1C", "melting point": "231 to 234"}, {"compound": "O=C(O)CCCCCc1nc2ccccc2s1", "melting point": "71 to 72"}]}]}
